Measurements as given in US9284325B2, “Spectinamides as anti-tuberculosis agents” (UNIVERSITY OF TENNESSEE RESEARCH FOUNDATION, priority 2009, dated 2016).
Where a name gives a salt, the structure may show the parent alone.

Experiments:
[1] = system: Burkholderia cepacia ATCC 25416; test: MIC determination by microbroth dilution; format: cell-based; settings: ATCC25416, read-out: MIC B. cepcia
B. anthracis Sterne 34F2 = test: microbe, parasite or virus in culture; format: cell-based, Bacillus anthracis; settings: Bacillus anthracis, STERNE34F2, read-out: MIC B. anthracis 34F2
P. aeruginosa PAO1 = test: MIC determination by microbroth dilution; format: cell-based, Pseudomonas aeruginosa; settings: Pseudomonas aeruginosa
[2] = system: S. aureus 8325 or strain ATCC 29213; test: MIC determination by microbroth dilution; format: cell-based, Staphylococcus aureus; settings: Staphylococcus aureus, ATCC29213; S. aureus 8325 or strain ATCC 29213 (for 1471-1544)
E. coli K12 = test: MIC determination by microbroth dilution; format: cell-based, Escherichia coli; settings: Escherichia coli, K12
[3] = system: Strenotrophomonas maltophilia ATCC 13637; test: MIC determination by microbroth dilution; format: cell-based
[4] = system: Acinetobacter baumannii ATCC 19606; test: MIC determination by microbroth dilution; format: cell-based; settings: ATCC19606
[5] = system: Proteus vulgaris ATCC 33420; test: MIC determination by microbroth dilution; format: cell-based; settings: ATCC33420
M. tuberculosis H37Rv = test: MIC determination by microbroth dilution, anti-tuberculosis activity; format: cell-based, Mycobacterium tuberculosis; settings: Mycobacterium tuberculosis, H37RV, 168 h; read-out: MIC
E. faecalis ATCC 33186 = test: MIC determination by microbroth dilution; format: cell-based, Enterococcus faecalis; settings: Enterococcus faecalis, ATCC33186
[6] = system: Proteus mirabilis ATCC 25933; test: MIC determination by microbroth dilution; format: cell-based; settings: ATCC25933
[7] = system: Klebsiella pneumoniae ATCC 33495; test: MIC determination by microbroth dilution; format: cell-based; settings: ATCC33495
[8] = system: Strep. pneumoniae DAW27 or strain R6; test: MIC determination by microbroth dilution; format: cell-based, Streptococcus pneumoniae; settings: Streptococcus pneumoniae; Strep. pneumoniae DAW27 or strain R6 (for 1443-1544); read-out: MIC S. pneumoniae
[9] = system: Strep. pyogenes ATCC 700294; test: MIC determination by microbroth dilution; format: cell-based, Streptococcus pyogenes; settings: Streptococcus pyogenes, ATCC700294, read-out: MIC S. pyogenes
E. coli K12 ΔtolC = test: microbe, parasite or virus in culture; format: cell-based; settings: Escherichia coli, read-out: MIC E. coli K12 ΔtolC

| SMILES | MIC [1] [µg/mL] | MIC (B. anthracis Sterne 34F2) [µg/mL] | MIC (P. aeruginosa PAO1) [µg/mL] | MIC [2] [µg/mL] | MIC (E. coli K12) [µg/mL] | MIC [3] [µg/mL] | MIC [4] [µg/mL] | MIC [5] [µg/mL] | MIC (M. tuberculosis H37Rv) [µg/mL] | MIC (E. faecalis ATCC 33186) [µg/mL] | MIC [6] [µg/mL] | MIC [7] [µg/mL] | MIC [8] [µg/mL] | MIC [9] [µg/mL] | MIC (E. coli K12 ΔtolC) [µg/mL] |
| --- | --- | --- | --- | --- | --- | --- | --- | --- | --- | --- | --- | --- | --- | --- | --- |
| CN[C@@H]1[C@H](O)[C@H](NC)C2O[C@]3(O)C(OC2[C@H]1O)O[C@H](C)C[C@H]3NC(=O)Cc1cccnn1 (stereo partly drawn) [Compound 1449, 3′-Dihydro-3′-deoxy-4(R)-(pyridazin-3-yl)acetylamino spectinomycin tetra hydrobromide] | > 200 | > 200 | > 200 | > 200 | > 200 | > 200 | > 200 | > 200 | 25 | > 200 | > 200 | > 200 | 25 | 200 | 100 |
| CN[C@@H]1[C@H](O)[C@H](NC)C2O[C@]3(O)C(OC2[C@H]1O)O[C@H](C)C[C@H]3NC(=O)Cc1csc(Nc2ccc(OC(F)(F)F)cc2)n1 (stereo partly drawn) [Compound 1540, 3′-Dihydro-3′-deoxy-4(R)-(2-((4-(trifluoromethoxy)phenyl)amino)-thiazol-4-yl)acetylamino spectinomycin tribromide] | > 200 | > 200 | 25 | 100 | > 200 | 200 | > 200 | > 200 | 6.25 | 25 | > 200 | > 200 | 6.25 | 6.25 | 12.5 |
| CN[C@@H]1[C@H](O)[C@H](NC)C2O[C@]3(O)C(OC2[C@H]1O)O[C@H](C)C[C@H]3NC(=O)Cc1ccc(-c2ccccc2)cn1 (stereo partly drawn) [Compound 1519, 3′-Dihydro-3′-deoxy-4(R)-(5-phenylpyridin-2-yl)acetylamino spectinomycin trihydrobromide] | > 200 | > 200 | > 200 | 100 | > 200 | > 200 | > 200 | > 200 | 3.12 | 25 | > 200 | > 200 | 3.1 | 12.5 | 12.5 |
| CN[C@@H]1[C@H](O)[C@H](NC)C2O[C@]3(O)C(OC2[C@H]1O)O[C@H](C)C[C@H]3NC(=O)C(c1ccccc1)c1ccccc1 (stereo partly drawn) [Compound 1514, 3′-Dihydro-3′-deoxy-4(R)-(2,2-diphenyl)acetylamino spectinomycin dihydrochloride] | > 200 | > 200 | > 200 | > 200 | > 200 | > 200 | > 200 | > 200 | > 200 | > 200 | > 200 | > 200 | > 200 | > 200 | > 200 |
| CN[C@@H]1[C@H](O)[C@H](NC)C2O[C@]3(O)C(OC2[C@H]1O)O[C@H](C)C[C@H]3NC(=O)[C@@H](O)CCN (stereo partly drawn) [Compound 1493, 3′-Dihydro-3′-deoxy-4(R)-(2(S)-4-amino-2-hydroxy)butanoylamino spectinomycin trihydrochloride] | > 200 | > 200 | > 200 | > 200 | 100 | > 200 | > 200 | 100 | > 200 | > 200 | > 200 | > 200 | 50 | 50 | 25 |
| CN[C@@H]1[C@H](O)[C@H](NC)C2O[C@]3(O)C(OC2[C@H]1O)O[C@H](C)C[C@H]3NC(=O)c1cccc2cccnc12 (stereo partly drawn) [Compound 1536, 3′-Dihydro-3′-deoxy-4(R)-(quinoline-8-yl)carbonylamino spec-tinomycin trihydrobromide] | > 200 | > 200 | > 200 | > 200 | > 200 | > 200 | > 200 | > 200 | > 200 | > 200 | > 200 | > 200 | 200 | > 200 | > 200 |
| CN[C@@H]1[C@H](O)[C@H](NC)C2O[C@]3(O)C(OC2[C@@H]1O)O[C@H](C)C[C@H]3NC(=O)Cc1nc2ccccc2s1 (stereo partly drawn) [Compound 1491, 3′-Dihydro-3′-deoxy-4(R)-(benzothiazol-2-yl)acetylamino spectinomycin trihydrobromide] | > 200 | > 200 | > 200 | 100 | 200 | > 200 | > 200 | > 200 | 1.6 | 25 | > 200 | > 200 | 6.25 | 12.5 | 12.5 |
| CN[C@@H]1[C@H](O)[C@H](NC)C2O[C@]3(O)C(OC2[C@H]1O)O[C@H](C)C[C@H]3NC(=O)CN (stereo partly drawn) [Compound 1470, 3′-Dihydro-3′-deoxy-4(R)-(2-amino)acetylamino spectinomycin Trihydrochloride] | > 200 | > 200 | > 200 | > 200 | > 200 | > 200 | > 200 | > 200 | 200 | > 200 | > 200 | > 200 | > 200 | > 200 | > 200 |
| CN[C@@H]1[C@H](O)[C@H](NC)C2O[C@]3(O)C(OC2[C@H]1O)O[C@H](C)C[C@H]3NC(=O)Cc1csc(Nc2ccc(C(F)(F)F)cc2)n1 (stereo partly drawn) [Compound 1541, 3′-Dihydro-3′-deoxy-4(R)-(2-((4-(trifluoromethyl)phenyl)amino)-thiazol-4-yl)acetylamino spectinomycin tribromide] | > 200 | > 200 | 25 | 100 | > 200 | 200 | > 200 | > 200 | 6.25 | 25 | > 200 | > 200 | 3.1 | 6.25 | 12.5 |
| CN[C@@H]1[C@H](O)[C@H](NC)C2O[C@]3(O)C(OC2[C@H]1O)O[C@H](C)C[C@H]3NC(=O)Cc1ccc(-c2ccc(Cl)cc2)cn1 (stereo partly drawn) [Compound 1535, 3′-Dihydro-3′-deoxy-4(R)-(5-(4-chlorophenyl)pyridin-2-yl)acetylamino spectinomycin trihydrobromide] | > 200 | > 200 | 100 | 50 | 200 | > 200 | > 200 | > 200 | 3.12 | 3.1 | > 200 | > 200 | 0.8 | 1.6 | < 6.25 |
| CN[C@@H]1[C@H](O)[C@H](NC)C2O[C@]3(O)C(OC2[C@H]1O)O[C@H](C)C[C@H]3NC(=O)Cc1cccc(OC)c1 (stereo partly drawn) [Compound 1400, 3′-Dihydro-3′-deoxy-4(R)-(3-methoxy-phenyl)acetylamino spectinomycin Dihydrochloride] | > 200 | 200 | 100 | > 200 | > 200 | > 200 | > 200 | > 200 | 12.5 | 100 | > 200 | > 200 | 100 | > 200 | > 200 |
